Assays:
[1] = Molar enthalpy of transition or fusion; settings: Adiabatic calorimetry
[2] = for molar entropy / mass density: 101.33 kPa; for molar entropy: Small (less than 1 g) adiabatic calorimetry; for mass density: Pycnometric method; for vapor or sublimation pressure: Ebulliometric method (Recirculating still); for Triple point temperature: Adiabatic calorimetry

CC(C)COCC(C)C [diisobutyl ether]
Settings	Molar enthalpy of transition or fusion, [1] [kcal/mol]	Triple point temperature, [2] [K]
Crystal 1	2.71	190.4
Crystal 2	0.43	170.71

[2]
Settings	mass density [kg/m3]	molar entropy [J/K/mol]	vapor or sublimation pressure [kPa]
10 K, Crystal 2	–	0.4387	–
15 K, Crystal 2	–	2.36	–
20 K, Crystal 2	–	5.506	–
25 K, Crystal 2	–	9.633	–
30 K, Crystal 2	–	14.45	–
35 K, Crystal 2	–	19.69	–
40 K, Crystal 2	–	25.17	–
45 K, Crystal 2	–	30.79	–
50 K, Crystal 2	–	36.49	–
55 K, Crystal 2	–	42.24	–
60 K, Crystal 2	–	48.03	–
65 K, Crystal 2	–	53.84	–
70 K, Crystal 2	–	59.61	–
75 K, Crystal 2	–	65.3	–
80 K, Crystal 2	–	70.92	–
85 K, Crystal 2	–	76.51	–
90 K, Crystal 2	–	82.09	–
95 K, Crystal 2	–	87.65	–
100 K, Crystal 2	–	93.17	–
110 K, Crystal 2	–	104	–
120 K, Crystal 2	–	114.8	–
130 K, Crystal 2	–	125.4	–
140 K, Crystal 2	–	135.9	–
150 K, Crystal 2	–	146.4	–
160 K, Crystal 2	–	157.1	–
170.71 K, Crystal 1	–	179.1	–
170.71 K, Crystal 2	–	168.6	–
180 K, Crystal 1	–	188.8	–
190.4 K, Crystal 1	–	200.4	–
190.4 K, Liquid	–	259.9	–
200 K, Liquid	–	272.1	–
210 K, Liquid	–	284	–
220 K, Liquid	–	295.5	–
230 K, Liquid	–	306.6	–
240 K, Liquid	–	317.3	–
250 K, Liquid	–	327.8	–
260 K, Liquid	–	338	–
270 K, Liquid	–	348	–
280 K, Liquid	–	357.7	–
290 K, Liquid	–	367.2	–
298.06 K, Liquid	748.62	–	–
298.07 K, Liquid	748.49	–	–
298.09 K, Liquid	748.45	–	–
298.14 K, Liquid	748.69	–	–
298.15 K, Liquid	–	374.8	–
298.18 K, Liquid	748.69	–	–
298.22 K, Liquid	748.09	–	–
300 K, Liquid	–	376.5	–
302.68 K, Liquid	743.72	–	–
302.73 K, Liquid	744.19	–	–
302.79 K, Liquid	743.67	–	–
302.81 K, Liquid	744.14	–	–
302.83 K, Liquid	743.5	–	–
302.86 K, Liquid	743.47	–	–
310 K, Liquid	–	385.6	–
312.72 K, Liquid	733.67	–	–
312.95 K, Liquid	733.53	–	–
312.99 K, Liquid	733.64	–	–
313.02 K, Liquid	733.56	–	–
313.03 K, Liquid	734	–	–
320 K, Liquid	–	394.6	–
330 K, Liquid	–	403.5	–
330.9 K, Liquid	–	–	10.75
336.08 K, Liquid	–	–	13.37
340 K, Liquid	–	412.1	–
341.66 K, Liquid	–	–	16.76
347.21 K, Liquid	–	–	20.79
350 K, Liquid	–	420.8	–
352.09 K, Liquid	–	–	24.97
357.89 K, Liquid	–	–	30.79
360 K, Liquid	–	429.3	–
363.27 K, Liquid	–	–	37.12
369.46 K, Liquid	–	–	45.66
370 K, Liquid	–	437.7	–
375.78 K, Liquid	–	–	55.91
381.77 K, Liquid	–	–	67.26
388.15 K, Liquid	–	–	81.3
392.78 K, Liquid	–	–	92.88
393.58 K, Liquid	–	–	95
394.37 K, Liquid	–	–	97.12
395.14 K, Liquid	–	–	99.28
